The values that follow come from ChEMBL document CHEMBL1137962, “New heteroarylbenzenesulphonamides as matrix metalloproteinase inhibitors” (Bioorg Med Chem Lett, 2004).

Assay [1] concerns the target 72 kDa type IV collagenase (Homo sapiens, UniProt P08253). Kind of assay: Inhibition of matrix metalloprotease-2.
Assay [2] has as its target Matrix metalloproteinase-9 (Homo sapiens, UniProt P14780). Put plainly: Inhibition of matrix metalloprotease-9.

pIC50: −log10 of the molar value.

72 kDa type IV collagenase, sequence (P08253 whole entry): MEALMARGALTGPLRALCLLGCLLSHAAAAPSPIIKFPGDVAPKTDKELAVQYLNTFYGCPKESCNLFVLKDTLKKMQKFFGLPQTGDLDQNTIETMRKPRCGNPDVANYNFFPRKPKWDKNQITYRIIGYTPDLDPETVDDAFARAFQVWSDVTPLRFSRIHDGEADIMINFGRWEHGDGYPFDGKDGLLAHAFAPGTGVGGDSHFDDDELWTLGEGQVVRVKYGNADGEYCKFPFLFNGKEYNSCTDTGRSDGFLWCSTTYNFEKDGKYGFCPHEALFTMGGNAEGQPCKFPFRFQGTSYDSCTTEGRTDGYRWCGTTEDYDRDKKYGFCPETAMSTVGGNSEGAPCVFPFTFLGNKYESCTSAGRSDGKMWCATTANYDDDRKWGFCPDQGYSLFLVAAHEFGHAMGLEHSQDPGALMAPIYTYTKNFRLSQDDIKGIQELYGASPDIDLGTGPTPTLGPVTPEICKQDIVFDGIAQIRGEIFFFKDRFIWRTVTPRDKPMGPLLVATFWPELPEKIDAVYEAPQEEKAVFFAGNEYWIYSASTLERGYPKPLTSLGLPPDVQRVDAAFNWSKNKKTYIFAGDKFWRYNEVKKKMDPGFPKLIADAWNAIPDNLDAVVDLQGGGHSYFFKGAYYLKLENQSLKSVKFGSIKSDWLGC
Matrix metalloproteinase-9, sequence (P14780 whole entry): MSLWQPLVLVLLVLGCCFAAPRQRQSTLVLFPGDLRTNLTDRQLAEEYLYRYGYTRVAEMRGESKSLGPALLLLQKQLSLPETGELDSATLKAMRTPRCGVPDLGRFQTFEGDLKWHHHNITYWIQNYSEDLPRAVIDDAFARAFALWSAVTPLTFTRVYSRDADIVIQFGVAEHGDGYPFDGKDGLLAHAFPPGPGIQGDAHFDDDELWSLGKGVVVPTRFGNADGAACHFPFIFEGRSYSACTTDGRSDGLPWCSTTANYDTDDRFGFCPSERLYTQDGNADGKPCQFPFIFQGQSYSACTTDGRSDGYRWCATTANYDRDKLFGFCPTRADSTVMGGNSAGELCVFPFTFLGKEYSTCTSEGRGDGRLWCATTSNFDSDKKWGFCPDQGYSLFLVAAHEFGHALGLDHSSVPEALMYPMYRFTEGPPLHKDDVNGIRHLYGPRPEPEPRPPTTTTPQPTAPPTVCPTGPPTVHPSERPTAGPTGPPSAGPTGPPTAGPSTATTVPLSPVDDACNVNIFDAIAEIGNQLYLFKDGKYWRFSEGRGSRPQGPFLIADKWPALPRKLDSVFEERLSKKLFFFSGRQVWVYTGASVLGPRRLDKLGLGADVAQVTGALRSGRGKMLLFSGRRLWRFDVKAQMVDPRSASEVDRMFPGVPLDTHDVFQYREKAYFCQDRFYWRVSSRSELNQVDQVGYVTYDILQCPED

`COc1ccc(-c2cnc(-c3ccc(S(=O)(=O)NC(C(=O)NO)C(C)C)cc3)o2)cc1` (centres undefined): the pIC50 in assay [1] and in assay [2] was 6.00 each time.

Turning to `CNC(=O)[C@@H](CC(=O)[C@H](CC(C)C)[C@H](CSc1ccccc1)C(=O)NO)Cc1ccccc1`, the pIC50 in assay [1] and in assay [2] was 6.70 throughout.

Take `COc1ccc(-c2cnc(-c3ccc(S(=O)(=O)NC(CCC(=O)O)C(=O)O)cc3)s2)cc1` (centres undefined): the pIC50 in assay [1] and in assay [2] was 7.30 in each case.

As for `COc1ccc(-c2cnc(-c3ccc(S(=O)(=O)NC(C(=O)NO)C(C)C)cc3)s2)cc1` (centres undefined), the pIC50 in assay [1] was 6.40; in assay [2] it was 6.05.

`COc1ccc(-c2cnc(-c3ccc(S(=O)(=O)NC(C(=O)CCC(=O)O)C(C)C)cc3)o2)cc1` (centres undefined): the pIC50 in assay [1] and in assay [2] was 5.00 in each case.

On to `COc1ccc(-c2cnc(-c3ccc(S(=O)(=O)NC(C(=O)O)C(C)C)cc3)o2)cc1` (centres undefined), for which the pIC50 in assay [1] and in assay [2] was 6.00 in each case.

In the case of `COc1ccc(-c2cnc(-c3ccc(S(=O)(=O)NC(C(=O)O)C(C)C)cc3)s2)cc1` (centres undefined), the pIC50 in assay [1] is 6.70; in assay [2] it was 6.15.

Broadly, the pIC50 is the IC50 on a negative log10 scale, so that one unit is a factor of ten. Low values mean a high IC50, high ones a low IC50.
